According to patent US20110076339A1, “Colon Cleansing Method and Kit” (Kingston General Hospital, priority 2008, published 2011):

Experiment: Patient diary of bowel movements after laxative use
Type: in vivo, human
From the text: In patient tolerance studies described herein, treatment groups received an osmotic purgative on the evening before colonoscopy in split doses. Comparisons were made between the results of these osmotic purgatives. Also, a comparison was made between patients treated with osmotic purgative alone, and patients treated initially with stimulant laxative followed by osmotic purgative. Table III provides a summary of data gathered from diaries that were kept by 100 patients as they progressed through a colon cleansing regimen. Each patient recorded the time of the first and last bowel movement following consumption of a laxative, as well as the total number of bowel movements associated with consumption of a particular laxative.

[1] = 10 mg taken 2 nights before colonoscopy (e.g. at suppertime)
[2] = 10 mg taken 3 nights before colonoscopy (e.g. at suppertime)

What does the source list for `CC(=O)Oc1ccc(C(c2ccc(OC(C)=O)cc2)c2ccccn2)cc1` [Bisacodyl, bisacodyl]?
Mean time to first BM ± standard deviation [1]: 8.6 ± 5.3 h; Mean time to last BM ± standard deviation [1]: 16.5 ± 5.3 h; Total number BM ± standard deviation [1]: 3.8 ± 2; Mean time to first BM ± standard deviation [2]: 8.9 ± 5.1 h; Mean time to last BM ± standard deviation [2]: 16.5 ± 5.1 h; Total number BM ± standard deviation [2]: 3.4 ± 2
